From US12447141B2, “Liquid tasimelteon formulations and methods of use thereof” (Vanda Pharmaceuticals Inc., priority 2019, dated 2025)
Converted amounts (≈) assume the structure as drawn.

Legend:
[1] = Solubility and pH of saturated solution; type: physicochemical; details: water
[2] = Chemical / storage stability of tasimelteon and its suspensions; type: physicochemical; details: formation of three degradation products
Protocol: Ascorbic acid preferentially undergoes oxidation, thereby preventing oxidation of tasimelteon, but also imparts a yellow color to the suspension on storage, especially when stored at 40° C./75% RH for >3 months, which is the accelerated storage condition for products stored at room temperature (6 months of satisfactory stability is necessary at 40° C./75% RH in order to justify long-term storage at room temperature/25° C./60% RH). Because of the color change from white/off-white to yellow after 3 months storage at 40° C./75% RH, it is necessary to store the suspension at 5° C., for which the accelerated storage condition is 25° C./60% RH and up to 6 months of satisfactory stability data at this storage condition are available (i.e., color change is from white/off-white to slightly yellow).
Short-term stability studies can be undertaken under storage conditions at (1) 5±3° C., (2) 25±2° C. (at 60±5% relative humidity), and 40±2° C. (at 75±5% relative humidity) for one to three months. Under such conditions, total impurities as determined by HPLC for pharmaceutically acceptable compositions are, for example, not more than 2.0 percent by weight or not more than 0.5 percent by weight with respect to known impurities, and not more than 0.2 percent by weight with respect to unspecified impurities.

[3] = test system: Smith-Magenis Syndrome (SMS); experiment: Study of efficacy of tasimelteon in disorders including SMS, once daily before bedtime; type: in vivo, pediatric patients
Protocol: (§1) One common symptom of SMS is a chronically disrupted sleep pattern, which is found at all ages. In a study to determine the efficacy of tasimelteon in the treatment of disorders, including SMS, oral (20 mg capsule or 4 mg/mL suspension) and intravenous (0.4 mg/mL) formulations were administered once per day before bedtime to pediatric patients 3-17 years old.
Treatment efficacy was assessed by improvements in nighttime sleep (i.e., reduced nighttime activity interrupting the sleep period, improved sleep efficiency, reduced variability in sleep onset, reduced variability in morning awakenings, and/or improved sleep quality), reduced daytime sleepiness, reduced behavioral problems (i.e., reduced aggressive behavior, reduced temper tantrums, reduced hyperactivity, and/or reduced attention deficits).

[4] = Apparent clearance in the pediatric study; type: in vivo, pediatric patients; details: children with body mass greater than 28 kg
Protocol: as §1

[5] = known in the art, cited from earlier work

Compound	solubility [1] [mg/mL]	oxidative degradation [2]	consistently effective dose ([3]; patients with body mass greater than 28 kg) [mg]	consistently effective dose ([3]; patients with body mass of 28 kg or less) [mg/kg]	apparent clearance [4]	solubility in organic solvents ([5]; 95% ethanol, methanol, acetonitrile, ethyl acetate, isopropanol, polyethylene glycols (PEG-300 and PEG-400))	effect of pH on aqueous solubility [5]	native pH of a saturated solution in water ([5]; saturated solution in water)	solubility in water ([5]; water)
OC[C@@H](O)[C@@H](O)[C@H](O)[C@H](O)CO [mannitol]	~200 (≈ 1100 mM)	–	–	–	–	–	–	–	–
CCC(=O)NC[C@@H]1C[C@H]1c1cccc2c1CCO2 [tasimelteon, trans-N-[[2-(2,3-dihydrobenzofuran-4-yl)cycloprop-1-yl]methyl]propanamide]	~1 (≈ 4.08 mM)	susceptible to oxidative degradation	20	0.7	constant and similar to that of adults	highly soluble	substantially unaffected by pH	8.5	poorly soluble
